The record followed here is US20070082880A1 (priority 2005, published 2007).

This experiment has as its target T1, human PKCθ full length enzyme (Homo sapiens, UniProt Q04759).
T1 construct: human PKCθ full length enzyme (Panvera Catalog No. P2996); purchased Panvera P2996
The experiment in a line: PKCθ IMAP Assay. Format: biochemical. The note with it: average value when one or more samples were tested; ATP 6 uM, PKCθ 1 nM. How it is done: The materials used include the following: human PKCθ full length enzyme (Panvera Catalog No. P2996); substrate peptide: 5FAM-[…]-OH (Molecular Devices, RP7032); ATP (Sigma Cat # A2383); DTT (Pierce, 20291); 5× kinase reaction buffer (Molecular Devices, R7209); 5× binding buffer A (Molecular Devices, R7282), 5× binding buffer B (Molecular Devices, R7209); IMAP Beads (Molecular Devices, R7284); and 384-well plates (Corning Costar, 3710).
The reaction buffer was prepared by diluting the 5× stock reaction buffer and adding DTT to obtain a concentration of 3.0 mM. The binding buffer was prepared by diluting the 5× binding buffer A. A master mix solution was prepared using a 90% dilution of the reaction buffer containing 2×ATP (12 uM) and 2× peptide ([…]). […] The final concentration of compound was 2× and 10% DMSO. DMSO was added to the rest of the master mix to increase the concentration to 10%. 10 ul of the master mix containing 10% DMSO was added to the rest of the wells on the plate except the 2nd column. 20 ul was transferred from the first column to the 2nd column. The compounds were serially diluted in 2:1 ratio starting from the 2nd column. A 2× (2 nM) PKCθ solution was made in the reaction buffer. 10 ul of the PKCθ solution was added to every well to achieve these final concentrations: PKCθ—1 nM; ATP—6 uM; peptide—100 nM; DMSO—5%. Samples were incubated for 25 minutes at room temperature. The binding reagent was prepared by diluting the beads in 1× binding buffer to 800:1. 50 ul of the binding reagent was added to every well and incubated for 20 minutes. FP was measured using Envision2100 (PerkinElmer Life Sciences). Wells with no ATPs and wells with no enzymes were used as controls.

T1 sequence (Q04759 whole entry): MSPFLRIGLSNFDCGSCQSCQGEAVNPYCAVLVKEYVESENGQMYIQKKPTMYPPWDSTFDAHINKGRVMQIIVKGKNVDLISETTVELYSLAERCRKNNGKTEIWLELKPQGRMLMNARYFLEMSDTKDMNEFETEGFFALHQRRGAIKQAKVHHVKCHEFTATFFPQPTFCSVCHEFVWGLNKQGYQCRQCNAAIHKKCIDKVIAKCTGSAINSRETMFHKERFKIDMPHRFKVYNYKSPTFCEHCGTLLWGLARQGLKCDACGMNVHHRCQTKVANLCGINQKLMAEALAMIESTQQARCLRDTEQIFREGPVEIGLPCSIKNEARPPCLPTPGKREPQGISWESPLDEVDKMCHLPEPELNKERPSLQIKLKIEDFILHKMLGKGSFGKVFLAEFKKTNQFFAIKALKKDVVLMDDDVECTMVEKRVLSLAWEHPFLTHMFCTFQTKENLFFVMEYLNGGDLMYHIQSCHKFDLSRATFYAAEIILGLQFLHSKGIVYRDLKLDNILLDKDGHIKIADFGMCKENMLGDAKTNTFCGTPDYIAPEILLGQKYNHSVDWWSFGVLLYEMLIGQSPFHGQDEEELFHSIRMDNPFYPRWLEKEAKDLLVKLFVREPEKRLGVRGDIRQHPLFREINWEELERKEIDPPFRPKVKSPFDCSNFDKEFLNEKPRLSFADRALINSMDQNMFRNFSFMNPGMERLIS

For the compound `CN(C)Cc1cccc(-c2cc3c(Nc4ccncc4)c(C#N)cnc3s2)c1` [Compound 327, 2-{3-[(dimethylamino)methyl]phenyl}-4-(pyridin-4-ylamino)thieno[2,3-b]pyridine-5-carbonitrile], it took 16400 nM to reach half-maximal inhibition (IC50).
`CN1CCN(C(=O)c2cc3c(Nc4ccc5[nH]ccc5c4)c(C#N)cnc3s2)CC1` [Compound 253, 4-(1H-indol-5-ylamino)-2-[(4-methylpiperazin-1-yl)carbonyl]thieno[2,3-b]pyridine-5-carbonitrile]: the IC50 (usually the midpoint of a concentration-inhibition curve) was determined as 2280 nM.
The figure for `COC(=O)Nc1ccc(-c2cc3c(Nc4ccc5[nH]ccc5c4)c(C#N)cnc3s2)cc1` [Compound 342, methyl {4-[5-cyano-4-(1H-indol-5-ylamino)thieno[2,3-b]pyridin-2-yl]phenyl}carbamate] is 470 nM.
In turn, `N#Cc1cnc2sc(-c3cccc(CN4CCC(CCO)CC4)c3)cc2c1Nc1ccc2[nH]ccc2c1` [Compound 177, 2-(3-{[4-(2-hydroxyethyl)piperidin-1-yl]methyl}phenyl)-4-(1H-indol-5-ylamino)thieno[2,3-b]pyridine-5-carbonitrile] yielded an IC50 of 170 nM.
The figure for `CC1CCCN1C(=O)/C=C/c1cc2c(Nc3ccc4[nH]ccc4c3)c(C#N)cnc2s1` (stereo not shown) [Compound 291, 4-(1H-indol-5-ylamino)-2-[(1E)-3-(2-methylpyrrolidin-1-yl)-3-oxoprop-1-en-1-yl]thieno[2,3-b]pyridine-5-carbonitrile] is 105 nM; for `Cc1c(Nc2c(C#N)cnc3sc(C(=O)N(C)C)cc23)ccc2[nH]ccc12` [Compound 261, 5-cyano-N,N-dimethyl-4-[(4-methyl-1H-indol-5-yl)amino]thieno[2,3-b]pyridine-2-carboxamide] it is 222 nM.
`C=Cc1cc2c(Nc3ccc4[nH]ccc4c3C)c(C#N)cnc2s1` [Compound 417, 4-[(4-methyl-1H-indol-5-yl)amino]-2-vinylthieno[2,3-b]pyridine-5-carbonitrile] gave an IC50 of 33 nM.
In turn, `N#Cc1cnc2sc(/C=C/Cc3ccccc3)cc2c1Nc1ccc2[nH]ccc2c1` [Compound 409, 4-(1H-indol-5-ylamino)-2-[(1E)-3-phenylprop-1-en-1-yl]thieno[2,3-b]pyridine-5-carbonitrile] displayed an IC50 of 3700 nM.
Regarding `Cc1c(Nc2c(C#N)cnc3sc(C(=O)Nc4ccncc4)cc23)ccc2[nH]ccc12` [Compound 257, 5-cyano-4-[(4-methyl-1H-indol-5-yl)amino]-N-pyridin-4-ylthieno[2,3-b]pyridine-2-carboxamide], the IC50 came out at 25 nM.
The compound `Cc1c(Nc2c(C#N)cnc3sc(-c4ccc(OCCCN(C)C)nc4)cc23)ccc2[nH]ccc12` [Compound 350, 2-{6-[3-(dimethylamino)propoxy]pyridin-3-yl}-4-[(4-methyl-1H-indol-5-yl)amino]thieno[2,3-b]pyridine-5-carbonitrile] came in with an IC50 of 34 nM.
Take `CNS(=O)(=O)c1cccc(-c2cc3c(Nc4ccc5[nH]ccc5c4C)c(C#N)cnc3s2)c1` [Compound 343, 3-{5-cyano-4-[(4-methyl-1H-indol-5-yl)amino]thieno[2,3-b]pyridin-2-yl}-N-methylbenzenesulfonamide]: half-maximal inhibition (IC50) was put at 30 nM.
The figure for `N#Cc1cnc2sc(C(=O)N3CCCC3)cc2c1Nc1ccc2[nH]ccc2c1` [Compound 250, 4-(1H-indol-5-ylamino)-2-(pyrrolidin-1-ylcarbonyl)thieno[2,3-b]pyridine-5-carbonitrile] is 1040 nM.
In turn, `CS(=O)(=O)c1cccc(-c2cc3c(Nc4ccc5[nH]ccc5c4)c(C#N)cnc3s2)c1` [Compound 239, 4-(1H-indol-5-ylamino)-2-[3-(methylsulfonyl)phenyl]thieno[2,3-b]pyridine-5-carbonitrile] yielded an IC50 of 1100 nM. This IC50 and that of the compound before are within 1.5-fold of each other.
Regarding `Cc1c(Nc2c(C#N)cnc3sc(-c4cccc(OC[C@H](O)CO)c4)cc23)ccc2[nH]ccc12` [Compound 484, 2-(3-{[(2R)-2,3-Dihydroxypropyl]-oxy}phenyl)-4-[(4-methyl-1H-indol-5-yl)amino]thieno[2,3-b]pyridine-5-carbonitrile], 17 nM corresponded to half-maximal inhibition (IC50).
Take `Cc1cc(CN(C)C)cc(-c2cc3c(Nc4ccc5[nH]ccc5c4C)c(C#N)cnc3s2)c1` [Compound 454, 2-{3-[(dimethylamino)methyl]-5-methylphenyl}-4-[(4-methyl-1H-indol-5-yl)amino]thieno[2,3-b]pyridine-5-carbonitrile]: the IC50 was 8 nM.
As for `N#Cc1cnc2sc(I)cc2c1Nc1cnc2[nH]ccc2c1Cl` [Compound 507, 4-[(4-chloro-1H-pyrrolo[2,3-b]pyridin-5-yl)amino]-2-iodothieno[2,3-b]pyridine-5-carbonitrile], the midpoint of inhibition, the IC50, lay at 69 nM.
Take `COC/C=C/c1cc2c(Nc3ccc4[nH]ccc4c3C)c(C#N)cnc2s1` [Compound 422, 2-[(1E)-3-methoxyprop-1-en-1-yl]-4-[(4-methyl-1H-indol-5-yl)amino]thieno[2,3-b]pyridine-5-carbonitrile]: it took 69 nM to reach half-maximal inhibition (IC50).
As to `Cc1c(Nc2c(C#N)cnc3sc(-c4ccccc4CNCCCO)cc23)ccc2[nH]ccc12` [Compound 469, 2-(2-{[(3-hydroxypropyl)amino]methyl}phenyl)-4-[(4-methyl-1H-indol-5-yl)amino]thieno[2,3-b]pyridine-5-carbonitrile], half-maximal inhibition (IC50) was put at 151 nM.
In turn, `Cc1ccc(CN(C)C)cc1-c1cc2c(Nc3ccc4[nH]ccc4c3C)c(C#N)cnc2s1` [Compound 368, 2-{5-[(dimethylamino)methyl]-2-methylphenyl}-4-[(4-methyl-1H-indol-5-yl)amino]thieno[2,3-b]pyridine-5-carbonitrile] came in with an IC50 of 100 nM.
Compound `Cc1c(Nc2c(C#N)cnc3sc(C4=CCN(C(=O)OC(C)(C)C)CC4)cc23)ccc2[nH]ccc12` [Compound 418, tert-butyl 4-{5-cyano-4-[(4-methyl-1H-indol-5-yl)amino]thieno[2,3-b]pyridin-2-yl}-5,6-dihydropyridine-1(2H)-carboxylate] had an IC50 of 100 nM.
`Cc1c(Nc2c(C#N)cnc3sc(C#CCCN4CCN(C)CC4)cc23)ccc2[nH]ccc12` [Compound 450, 4-[(4-methyl-1H-indol-5-yl)amino]-2-[4-(4-methylpiperazin-1-yl)but-1-yn-1-yl]thieno[2,3-b]pyridine-5-carbonitrile] showed an IC50 of 126 nM.
In turn, `Cc1c(Nc2c(C#N)cnc3sc(-c4cccc(OC[C@@H](O)CO)c4)cc23)ccc2[nH]ccc12` [Compound 485, 2-(3-{[(2S)-2,3-Dihydroxypropyl]-oxy}phenyl)-4-[(4-methyl-1H-indol-5-yl)amino]thieno[2,3-b]pyridine-5-carbonitrile] came in with an IC50 of 40 nM.
With `COC/C=C/c1cc2c(Nc3ccc4[nH]ccc4c3)c(C#N)cnc2s1` [Compound 412, 4-(1H-indol-5-ylamino)-2-[(1E)-3-methoxyprop-1-en-1-yl]thieno[2,3-b]pyridine-5-carbonitrile], the 50% inhibitory concentration (IC50) came out at 413 nM.
`Cc1c(Nc2c(C#N)cnc3sc(/C=C/C(=O)Nc4ccccc4)cc23)ccc2[nH]ccc12` [Compound 303, (2E)-3-{5-cyano-4-[(4-methyl-1H-indol-5-yl)amino]thieno[2,3-b]pyridin-2-yl}-N-phenylacrylamide] returned an IC50 of 111 nM.
Take `COc1ccc(CN(C)C)cc1-c1cc2c(Nc3ccc4[nH]ccc4c3C)c(C#N)cnc2s1` [Compound 457, 2-{5-[(dimethylamino)methyl]-2-methoxyphenyl}-4-[(4-methyl-1H-indol-5-yl)amino]thieno[2,3-b]pyridine-5-carbonitrile]: it took 5 nM to reach half-maximal inhibition (IC50).
